Experimental data reported in patent publication US20250262195A1, “METHOD TO PREVENT AND TREAT DIABETIC RETINOPATHY BY CALCIUM CHANNEL BLOCKERS, ANGIOTENSIN CONVERTING ENZYME INHIBITORS, AND ANGIOTENSIN RECEPTOR BLOCKERS” (priority 2022, published 2025).

Columns and labels:
Type in all cases: in vivo, human
[1] = test system: patient diagnosed with diabetic retinopathy; test: Treatment of a patient diagnosed with diabetic retinopathy, one eye treated and the other left untreated
Text: A patient is diagnosed with diabetic retinopathy. A composition comprising the calcium channel blocker nifedipine is directly applied to the vitreous surface of one eye while the other eye is left untreated. […] A patient is diagnosed with diabetic retinopathy. A composition comprising the ACE inhibitor enalapril is directly applied to the vitreous surface of one eye while the other eye is left untreated. […] A patient is diagnosed with diabetic retinopathy. A composition comprising the angiotensin receptor blocker losartan is directly applied to the vitreous surface of one eye while the other eye is left untreated. […] A patient is diagnosed with diabetic retinopathy. A composition comprising the calcium channel blocker nifedipine is applied to the eye by intravitreal or intraocular injection while the other eye is left untreated. […] A patient is diagnosed with diabetic retinopathy. A composition comprising the ACE inhibitor enalapril is applied to the eye by intravitreal or intraocular injection while the other eye is left untreated. […] A patient is diagnosed with diabetic retinopathy. A composition comprising the angiotensin receptor blocker losartan is applied to the eye by intravitreal or intraocular injection while the other eye is left untreated.

[2] = test system: patient successfully treated for diabetic retinopathy; test: Prevention of recurrence in a patient successfully treated for diabetic retinopathy, one eye treated and the other left untreated; settings: untreated eye shows signs of recurrence
Text: A composition comprising the calcium channel blocker nifedipine is directly applied to the vitreous surface of one eye while the other eye is left untreated. […] A composition comprising the ACE inhibitor enalapril is directly applied to the vitreous surface of one eye while the other eye is left untreated. […] A composition comprising the angiotensin receptor blocker losartan is directly applied to the vitreous surface of one eye while the other eye is left untreated. […] A composition comprising the calcium channel blocker nifedipine is applied to the eye by intravitreal or intraocular injection while the other eye is left untreated. […] A composition comprising the ACE inhibitor enalapril is applied to the eye by intravitreal or intraocular injection while the other eye is left untreated. […] A composition comprising the angiotensin receptor blocker losartan is applied to the eye by intravitreal or intraocular injection while the other eye is left untreated.

[3] = test system: patient with diabetic retinopathy; test: Topical ramiprilat formulation to the eye of a patient with diabetic retinopathy
Protocol: In this example, a patient with diabetic retinopathy is administered a topical formulation comprising ramiprilat to the eye. […] The diabetic retinopathy is therefore treated by the topical formulation.

[4] = test system: patients with diabetic retinopathy; test: Experimental use: vasodilators applied to patients' eyes, progression monitored at follow-up appointments; settings: applied to the eye; based on prior experience and observation during treatment of patients
[5] = composition applied by intravitreal or intraocular injection
[6] = composition directly applied to the vitreous surface of one eye

| Compound | symptoms of diabetic retinopathy, treated eye compared to untreated eye [1, 5] | symptoms of diabetic retinopathy, treated eye compared to untreated eye [1, 6] | development (recurrence) of diabetic retinopathy in the treated eye [2, 5] | development (recurrence) of diabetic retinopathy in the treated eye [2, 6] | effectiveness for the treatment of diabetic retinopathy or its symptoms [4] | further results |
| --- | --- | --- | --- | --- | --- | --- |
| CCCCc1nc(Cl)c(CO)n1Cc1ccc(-c2ccccc2-c2nn[nH]n2)cc1 [losartan] | reduced symptoms of diabetic retinopathy | reduced symptoms of diabetic retinopathy | not develop diabetic retinopathy | not develop diabetic retinopathy | – | – |
| Ramiprilat | – | – | – | – | – | capillary blood supply to the eye [3]: increases the capillary blood supply; capillary networks in the eye [3]: grows capillary networks; diabetic retinopathy outcome [3]: treated; intraocular pressure [3]: reduction in intraocular pressure; optic nerve [3]: repair to the optic nerve |
| COC(=O)C1=C(C)NC(C)=C(C(=O)OC(C)C)C1c1cccc2nonc12 (stereo not drawn) [isradipine] | – | – | – | – | effective | – |
| CCOC(=O)[C@H](CCc1ccccc1)N[C@@H](C)C(=O)N1CCC[C@H]1C(=O)O [enalapril] | reduced symptoms of diabetic retinopathy | reduced symptoms of diabetic retinopathy | not develop diabetic retinopathy | not develop diabetic retinopathy | – | – |
| CCCC(=O)OCOC(=O)C1=C(C)NC(C)=C(C(=O)OC)C1c1cccc(Cl)c1Cl (stereo not drawn) [clevidipine] | – | – | – | – | effective | – |
